This note sets out measurements from ChEMBL document CHEMBL1201862, “PubChem BioAssay data set” (2004).

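Values below derive from 48-hour exposures of cells grown in 96-well plates, with endpoints linearly interpolated between the two concentrations bracketing the appropriate inhibition level. Here, GI50 denotes the concentration required for 50% inhibition of growth.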 Activity calls are given as the source filed them. Rule as the data show it: active = GI50 up to about 1.1 µM and inactive = higher.

Among the test systems are LXFL 529; SNB-78; RXF 631; DMS-114; HOP-18; DLD-1; DMS-273; XF498; BT-549.
Common to all, as to experiment: growth of human tumour cells (NCI), 48 h

In the case of `O=C(COc1ccccc1)NS(=O)(=O)c1ccccc1`, the GI50 in the assay with LXFL 529, with SNB-78, in the assay on RXF 631, with DMS-114, in the assay on HOP-18 and with DLD-1 was > 100 µM (inactive) each time.

Turning to `COC(=O)C(=O)C(C(=O)C(=O)Nc1cccc(C(C)=O)c1)c1nc2ccccc2nc1O` (configuration not stated), the GI50 in the assay on LXFL 529, with RXF 631, in the assay with DMS-273, in the assay with DMS-114, with HOP-18 and in the assay on DLD-1 was > 100 µM (inactive) throughout.

As for `CC(=O)NNc1nc(C)c(C(/C=C/c2ccc(Cl)cc2)=N\N=C(N)N)s1`, the GI50 in the assay on LXFL 529, in the assay with SNB-78, in the assay with RXF 631, in the assay with DMS-273, in the assay on XF498 and in the assay with DLD-1 was > 100 µM (inactive) each time.

With `N#CC(C(=O)CCC(=O)Nc1ccc(Cl)cc1)c1ccc(Cl)cc1` (configuration not stated), the GI50 was 9.33 µM (inactive) with LXFL 529; > 100 µM (inactive) with SNB-78; > 100 µM (inactive) in the assay with RXF 631; > 100 µM (inactive) in the assay on DMS-273; > 100 µM (inactive) with DMS-114; > 100 µM (inactive) in the assay with XF498. Besides, the GI50 is 97.3 µM (inactive) in the assay on HOP-18 and 71.3 µM (inactive) in the assay with DLD-1.

As for `Cc1ccc(S(=O)(=O)N/N=C/c2oc(-c3ccccc3Cl)c(-c3ccccc3Cl)c2[N+](=O)[O-])cc1`, the GI50 was 19.3 µM (inactive) in the assay with RXF 631, 17.3 µM (inactive) with DMS-114 and 17.1 µM (inactive) with DLD-1.

Take `Nc1c(S(=O)(=O)c2ccccc2)c2nc3ccccc3nc2n2c1nc1ccccc12`: the GI50 in the assay on LXFL 529 is > 52 µM (inactive); in the assay with SNB-78, 26.4 µM (inactive); in the assay on RXF 631, 16.9 µM (inactive); with DMS-273, 7.67 µM (inactive); with DMS-114, > 69.3 µM (inactive); in the assay with XF498 it was 11.8 µM (inactive). The GI50 with DLD-1 was > 86.1 µM (inactive).

Turning to `CCCCCCC1=NOC(C(c2cc[nH]c2)N(C)[C@H](C(=O)OC)C(C)C)C1` (some centres not stated), the GI50 in the assay with LXFL 529 was 46.8 µM (inactive); in the assay on SNB-78, 21.3 µM (inactive); in the assay on RXF 631, 36.6 µM (inactive); with DMS-273, 25.8 µM (inactive); in the assay with DMS-114 it was 33.3 µM (inactive); in the assay with XF498 it was 35.3 µM (inactive). Besides, the GI50 in the assay on HOP-18 is 58.1 µM (inactive); in the assay with DLD-1, 34.1 µM (inactive).

As for `CCOC(=O)C12CCCC1(O)N(NC(=O)c1cccc(Cl)c1)C(C)=C2C(=O)OC` (configuration not stated), the GI50 is > 100 µM (inactive) with LXFL 529; 55.7 µM (inactive) in the assay with RXF 631; 56.2 µM (inactive) with DMS-273; > 100 µM (inactive) with DMS-114; > 100 µM (inactive) in the assay on XF498; > 100 µM (inactive) in the assay with DLD-1.

For the molecule `CC1CC(C)CC(C)C(O)/C(C#N)=C/C=C/CC(C2CCCC2C(=O)O)OC(=O)CC(O)C(C)C1` (configuration not stated), the GI50 was < 0.01 µM (active) in the assay with LXFL 529; 0.0143 µM (active) in the assay with BT-549; 0.0223 µM (active) in the assay on SNB-78; 0.0317 µM (active) in the assay on RXF 631; 0.0164 µM (active) with DMS-273; < 0.01 µM (active) in the assay on DMS-114. For the same molecule, the GI50 in the assay with XF498 was < 0.0164 µM (active); with HOP-18 it was 0.0189 µM (active); in the assay with DLD-1, < 0.0122 µM (active).

As to `O=C1C2C(C(=O)N1c1ccccc1)C1(c3ccccc3)OC2(c2ccccc2)c2ccccc21` (configuration not stated), the GI50 in the assay with LXFL 529, in the assay on RXF 631, with DMS-273, in the assay on DMS-114, with HOP-18 and in the assay with DLD-1 was > 100 µM (inactive) each time.

As to `CN(C)C(=S)OC(Cn1cncn1)c1ccc(Cl)cc1Cl` (configuration not stated), the GI50 in the assay with LXFL 529, in the assay on RXF 631, with DMS-273, with DMS-114, with HOP-18 and in the assay with DLD-1 was > 100 µM (inactive) throughout.

On to `O=C(O)C[C@@H](Cl)[C@H](NC(=O)OCc1ccccc1)C(=O)O`, for which the GI50 with LXFL 529, in the assay with SNB-78, with DMS-273, in the assay with DMS-114, in the assay on XF498 and with HOP-18 was > 100 µM (inactive) throughout. For the same molecule, in the assay with DLD-1, the GI50 was > 100 µM (inactive).

In the case of `COC(=O)CC(C(C(C)=O)C(=O)OCc1ccccc1)N1C(=O)OCC1c1ccccc1` (configuration not stated), the GI50 with LXFL 529 is 83.2 µM (inactive); in the assay on RXF 631, > 100 µM (inactive); with DMS-273 it was > 100 µM (inactive); with DMS-114 it was 52 µM (inactive); in the assay with XF498, 53.5 µM (inactive); in the assay on DLD-1, 47.2 µM (inactive).

For `COC(=O)C1CC(=O)O[C@H]1c1ccc(OC)c(OC)c1` (some centres not stated), the GI50 in the assay on LXFL 529, in the assay on SNB-78, in the assay with RXF 631, in the assay with DMS-273, in the assay with DMS-114 and in the assay with XF498 was > 100 µM (inactive) in each case. Further, the GI50 in the assay on HOP-18 and with DLD-1 was > 100 µM (inactive) in each case.
